Source: ChEMBL document CHEMBL2074245, “Valacyclovir: a substrate for the intestinal and renal peptide transporters PEPT1 and PEPT2” (Biochem Biophys Res Commun, 1998)

Tests used:
Assay type in all cases: functional, cell-based
[1] = biological target: T1, Solute carrier family 15 member 2 (Rattus norvegicus, UniProt Q63424); experiment: TP_TRANSPORTER: inhibition of Gly-Sar uptake in SKPT cells
T1 sequence (Q63424 whole entry): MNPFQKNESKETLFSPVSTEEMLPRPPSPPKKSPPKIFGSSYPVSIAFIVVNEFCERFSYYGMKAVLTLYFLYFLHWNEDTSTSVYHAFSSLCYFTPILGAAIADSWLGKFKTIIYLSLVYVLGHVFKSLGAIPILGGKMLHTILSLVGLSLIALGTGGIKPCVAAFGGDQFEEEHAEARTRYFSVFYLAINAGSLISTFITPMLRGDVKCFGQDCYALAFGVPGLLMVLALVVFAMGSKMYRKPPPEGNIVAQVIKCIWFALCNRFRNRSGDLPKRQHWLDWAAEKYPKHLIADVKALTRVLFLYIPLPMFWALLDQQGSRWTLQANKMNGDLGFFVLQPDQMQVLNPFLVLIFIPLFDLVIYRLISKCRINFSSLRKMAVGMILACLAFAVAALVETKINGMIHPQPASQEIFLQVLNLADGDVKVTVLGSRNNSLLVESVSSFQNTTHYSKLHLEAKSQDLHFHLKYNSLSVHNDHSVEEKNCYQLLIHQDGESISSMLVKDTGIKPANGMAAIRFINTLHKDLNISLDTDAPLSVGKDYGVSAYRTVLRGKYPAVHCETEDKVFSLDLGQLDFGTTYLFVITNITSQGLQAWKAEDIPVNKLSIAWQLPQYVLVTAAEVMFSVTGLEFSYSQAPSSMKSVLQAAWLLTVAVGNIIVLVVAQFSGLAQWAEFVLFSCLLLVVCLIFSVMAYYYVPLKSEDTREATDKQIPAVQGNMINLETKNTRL

[2] = biological target: T2, Solute carrier family 15 member 1 (Homo sapiens, UniProt P46059); experiment: TP_TRANSPORTER: inhibition of Gly-Sar uptake in PEPT1-expressing HeLa cells
T2 sequence (P46059 whole entry): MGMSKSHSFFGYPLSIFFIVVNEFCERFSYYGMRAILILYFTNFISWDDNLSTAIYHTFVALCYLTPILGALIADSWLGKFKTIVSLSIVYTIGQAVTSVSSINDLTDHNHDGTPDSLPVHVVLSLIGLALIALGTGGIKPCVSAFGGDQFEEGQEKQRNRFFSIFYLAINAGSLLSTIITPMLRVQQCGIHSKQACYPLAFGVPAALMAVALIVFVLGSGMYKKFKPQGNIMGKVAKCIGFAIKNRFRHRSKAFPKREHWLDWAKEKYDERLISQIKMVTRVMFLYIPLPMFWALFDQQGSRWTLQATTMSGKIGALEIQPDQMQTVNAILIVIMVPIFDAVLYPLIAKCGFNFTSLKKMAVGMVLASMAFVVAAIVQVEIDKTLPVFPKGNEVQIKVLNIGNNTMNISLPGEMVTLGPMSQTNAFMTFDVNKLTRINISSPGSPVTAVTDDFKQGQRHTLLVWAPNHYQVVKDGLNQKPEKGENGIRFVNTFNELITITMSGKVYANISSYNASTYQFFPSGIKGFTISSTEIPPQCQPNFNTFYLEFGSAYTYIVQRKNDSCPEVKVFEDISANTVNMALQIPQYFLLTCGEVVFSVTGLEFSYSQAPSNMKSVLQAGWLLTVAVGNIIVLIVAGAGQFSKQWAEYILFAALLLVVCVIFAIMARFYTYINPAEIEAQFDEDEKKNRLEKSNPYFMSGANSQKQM

[3] = biological target: T2, Solute carrier family 15 member 1; experiment: TP_TRANSPORTER: inhibition of Gly-Sar uptake in Caco-2 cells
[4] = biological target: T1, Solute carrier family 15 member 2; experiment: TP_TRANSPORTER: inhibition of Gly-Sar uptake in PEPT2-expressing HeLa cells
[5] = substrate: CN(CC(=O)O)C(=O)CN; experiment: TP_TRANSPORTER: uptake in PEPT2-expressing HeLa cells
[6] = substrate: CN(CC(=O)O)C(=O)CN; experiment: TP_TRANSPORTER: uptake in SKPT cells
[7] = substrate: CN(CC(=O)O)C(=O)CN; experiment: TP_TRANSPORTER: uptake in PEPT1-expressing HeLa cells
[8] = substrate: CN(CC(=O)O)C(=O)CN; experiment: TP_TRANSPORTER: uptake in Caco-2 cells

Molecule: CC(C)[C@H](N)C(=O)OCCOCn1cnc2c(=O)[nH]c(N)nc21 [VALACYCLOVIR]
- Ki [1]: 170 µM
- Ki [2]: 740 µM
- Ki [3]: 490 µM
- Ki [4]: 390 µM

B1: Solute carrier family 15 member 2 (Rattus norvegicus), Q63424 (protein)
chain: MNPFQKNESKETLFSPVSTEEMLPRPPSPPKKSPPKIFGSSYPVSIAFIVVNEFCERFSYYGMKAVLTLYFLYFLHWNEDTSTSVYHAFSSLCYFTPILGAAIADSWLGKFKTIIYLSLVYVLGHVFKSLGAIPILGGKMLHTILSLVGLSLIALGTGGIKPCVAAFGGDQFEEEHAEARTRYFSVFYLAINAGSLISTFITPMLRGDVKCFGQDCYALAFGVPGLLMVLALVVFAMGSKMYRKPPPEGNIVAQVIKCIWFALCNRFRNRSGDLPKRQHWLDWAAEKYPKHLIADVKALTRVLFLYIPLPMFWALLDQQGSRWTLQANKMNGDLGFFVLQPDQMQVLNPFLVLIFIPLFDLVIYRLISKCRINFSSLRKMAVGMILACLAFAVAALVETKINGMIHPQPASQEIFLQVLNLADGDVKVTVLGSRNNSLLVESVSSFQNTTHYSKLHLEAKSQDLHFHLKYNSLSVHNDHSVEEKNCYQLLIHQDGESISSMLVKDTGIKPANGMAAIRFINTLHKDLNISLDTDAPLSVGKDYGVSAYRTVLRGKYPAVHCETEDKVFSLDLGQLDFGTTYLFVITNITSQGLQAWKAEDIPVNKLSIAWQLPQYVLVTAAEVMFSVTGLEFSYSQAPSSMKSVLQAAWLLTVAVGNIIVLVVAQFSGLAQWAEFVLFSCLLLVVCLIFSVMAYYYVPLKSEDTREATDKQIPAVQGNMINLETKNTRL
- Km [5]: 70 µM
- Km [6]: 67 µM

B2: Solute carrier family 15 member 1 (Homo sapiens), P46059 (protein)
chain: MGMSKSHSFFGYPLSIFFIVVNEFCERFSYYGMRAILILYFTNFISWDDNLSTAIYHTFVALCYLTPILGALIADSWLGKFKTIVSLSIVYTIGQAVTSVSSINDLTDHNHDGTPDSLPVHVVLSLIGLALIALGTGGIKPCVSAFGGDQFEEGQEKQRNRFFSIFYLAINAGSLLSTIITPMLRVQQCGIHSKQACYPLAFGVPAALMAVALIVFVLGSGMYKKFKPQGNIMGKVAKCIGFAIKNRFRHRSKAFPKREHWLDWAKEKYDERLISQIKMVTRVMFLYIPLPMFWALFDQQGSRWTLQATTMSGKIGALEIQPDQMQTVNAILIVIMVPIFDAVLYPLIAKCGFNFTSLKKMAVGMVLASMAFVVAAIVQVEIDKTLPVFPKGNEVQIKVLNIGNNTMNISLPGEMVTLGPMSQTNAFMTFDVNKLTRINISSPGSPVTAVTDDFKQGQRHTLLVWAPNHYQVVKDGLNQKPEKGENGIRFVNTFNELITITMSGKVYANISSYNASTYQFFPSGIKGFTISSTEIPPQCQPNFNTFYLEFGSAYTYIVQRKNDSCPEVKVFEDISANTVNMALQIPQYFLLTCGEVVFSVTGLEFSYSQAPSNMKSVLQAGWLLTVAVGNIIVLIVAGAGQFSKQWAEYILFAALLLVVCVIFAIMARFYTYINPAEIEAQFDEDEKKNRLEKSNPYFMSGANSQKQM
- Km [7]: 450 µM
- Km [8]: 510 µM
